Legend:
Format in all cases: in vivo
vagus = assay: Parasympathetic blockade in anaesthetized cats (inhibition of the response to vagus stimulation); conditions: i.v., ED₅₀ for inhibition of parasympathetic (vagus) nerve stimulation relative to neuromuscular ED₉₅
Method: (§1) Mongrel male cats (Southeastern Laboratories Animal Farm), weighing 2.2-4.25kg, were anaesthetized with a mixture of pentobarbital sodium, 7mg/kg i.p., and alpha-chloralose, 80 mg/kg i.p. Adequate levels of anaesthesia were maintained with supplemental doses of alpha-chloralose administered intravenously as needed. The trachea was cannulated and the animals were ventilated with 20 ml/kg of room air via a Harvard Apparatus respiration pump adjusted to deliver 20 strokes/minute. Arterial blood pressure was measured via a cannula in the right femoral artery connected to a Statham P23 transducer. Heart rate was determined from the ECG using a Grass tachograph. […] Isometric […] of the nictitating membrane were recorded during a resting tension of 5 grams with a Grass FT.03 force displacement transducer and a Grass polygraph. […] Twitch tension in the anterior tibialis was recorded during a resting tension of 50 grams. […] Esophageal temperature was monitored with a Yellow Springs thermistor probe and core temperature maintained between 37° and 38°C with radiant heat. […] At the end of the experiments, cats were euthanatized with intravenously administered saturated KCl or pentobarbital sodium. b) Results The ED₉₅ value for neuromuscular blocking potency was calculated from dose-response curves. […]

[1] = tested on: cervical sympathetic nerve; assay: Sympathetic blockade in anaesthetized cats (cervical sympathetic nerve stimulation, nictitating membrane contraction); conditions: i.v., ED₂₅ for inhibition of sympathetic nerve stimulation relative to neuromuscular ED₉₅
Method: as §1

anterior tibialis = assay: Neuromuscular blocking potency in anaesthetized cats (peroneal nerve stimulation, anterior tibialis twitch tension); conditions: intravenous (femoral vein), calculated from dose-response curves, mg/kg as the free base, based on the weight of the atracurium cation
Method: as §1

| SMILES | RATIO 50% VAGUS INHIBITION vs. ED₉₅ (vagus) | RATIO 25% SYMPATHETIC INHIBITION vs. ED₉₅ [1] | CALC. * ED₉₅ (anterior tibialis) |
| --- | --- | --- | --- |
| COc1ccc(C[C@@H]2c3cc(OC)c(OC)cc3CC[N+]2(C)CCC(=O)OCCCCCOC(=O)CC[N+]2(C)CCc3cc(OC)c(OC)cc3[C@H]2Cc2ccc(OC)c(OC)c2)cc1OC.CS(=O)(=O)[O-].CS(=O)(=O)[O-] (relative stereo) [Compound A, 1R-cis,1'R-cis-2,2'-(3,11-Dioxo-4,10-dioxatridecamethylene)-bis-(1,2,3,4-tetrahydro-6,7-dimethoxy-2-methyl-1-veratrylisoquinolinium)methanesulphonate] | 27 | 60 | 0.062 ± 0.008 mg/kg |
| COc1ccc(CC2c3cc(OC)c(OC)cc3CC[N+]2(C)CCC(=O)OCCCCCOC(=O)CC[N+]2(C)CCc3cc(OC)c(OC)cc3C2Cc2ccc(OC)c(OC)c2)cc1OC (stereo not drawn) [Atracurium besylate, 2,2'-(3,11-dioxo-4,10-dioxatridecylene)-bis-(1,2,3,4-tetrahydro-6,7-dimethoxy-2-methyl-1-veratrylisoquinolinium dibesylate] | 17 | 34 | 0.092 ± 0.010 mg/kg |

From patent EP0539470B1, “NEUROMUSCULAR BLOCKING AGENTS” (THE WELLCOME FOUNDATION LIMITED, priority 1990, dated 1992)
